The subject of series [1] is SNU-398 (SALL4 high) cells. Kind of series: SALL4 high/low phenotypic screen (cell viability, CellTiter-Glo), SALL4 high cells. The format is cell-based. The conditions noted are these: for IC50: Homo sapiens, SNU-398, read-out: IC50 in high SALL4 SNU398 cells; for IC50 / IC50 in high SALL4 SNU398 cells: SALL4 high/low phenotypic screen, 72 hrs; for fold less potent than the most active compounds: SALL4 high SNU398 cells. On the procedure:
(§1) SNU-387 empty vector, Tg:SALL4A, and Tg:SALL4B expressing isogenic cell lines were generated by transducing WT SNU-387 cells with empty vector, SALL4A or SALL4B FUW-Luc-mCh-puro lentiviral constructs^1. Cells were plated in 50 µl of RPMI culture media in 384-well white flat-bottom plates (Coming) and incubated at 37° C. in a humidified atmosphere of 5% CO2 overnight. Cell numbers per well were 1500 for SNU-398, and 750 for SNU-387 and SNU-387 isogenic lines. After overnight incubation, varying concentrations of compounds 1-80 were added to cells with multichannel electronic pipettes (Rainin). Cells were then incubated for 72 hrs at 37° C. in a humidified atmosphere of 5% CO2 before 10 µl of CellTiter-Glo reagent was added to the wells with the MultiFlo Microplate Dispenser (BioTek). Cells were incubated at room temperature for a mininuun of 10 minutes after which luminescence readings were recorded by an Infinite M1000 Microplate Reader (Tecan).
This testing was based on SALL4 high/low phenotypic screen as described herein. IC50 values noted for the compounds/groups above are based on ICso in high SALL4 SNU398 cells.
ALPHA assay measures binding between SALL4 and RBBp4, an inhibitor could block the binding and reflected in low reading of the ALPHA assay. FP assay also measures binding between SALL4 and RBBp4, an inhibitor results in […] reading. Cell-based assays are measuring cell viability with different concentration of compounds. Cell based 1299 refers to cell viability assay using H1299 cells; Cell-based SNU387 refers to cell viability assay using SNU387 cells; Cell based assay-SNU-398 refers to cell viability assay using SNU398 cells; Cell based MDA-MB231 refers to cell viability assay using MDA-MB231 cells.
(In general: In ATP-based viability assays light output follows the ATP content of the culture.)

Series [2] has as its system SNU-387 (SALL4 low) cells. Kind of series: SALL4 high/low phenotypic screen (cell viability, CellTiter-Glo), SALL4 low cells. The format is cell-based. The conditions noted are these: Example 1, see FIG. 2. The method, then: as §1
ALPHA assay measures binding between SALL4 and RBBp4, an inhibitor could block the binding and reflected in low reading of the ALPHA assay. FP assay also measures binding between SALL4 and RBBp4, an inhibitor results in […] reading. Cell-based assays are measuring cell viability with different concentration of compounds. […]

Series [3] relates to SALL4 RNA. Kind of series: SALL4 RNA expression down regulation (Q-PCR) in H661 cells. The conditions noted are these: 48 hrs. Type of series: cell-based. The method, then: Cells were treated with compound 6 at 1 µM and 2.5 µM. Amounts for other cmpds are shown. Cells were harvested at 48 hrs and the cell lysates were subjected to western blot analysis and Q-PCR analysis for SALL4 protein and RNA level respectively. […] As shown in the lower panel of FIG. 6, using Q-PCR, it was shown that SALL4 RNA level was reduced by Compound 6 in H661 cells.

The target in series [4] is T1, SALL4 1-300 protein (Homo sapiens, UniProt Q9UJQ4).
T1 sequence (Q9UJQ4 1-300): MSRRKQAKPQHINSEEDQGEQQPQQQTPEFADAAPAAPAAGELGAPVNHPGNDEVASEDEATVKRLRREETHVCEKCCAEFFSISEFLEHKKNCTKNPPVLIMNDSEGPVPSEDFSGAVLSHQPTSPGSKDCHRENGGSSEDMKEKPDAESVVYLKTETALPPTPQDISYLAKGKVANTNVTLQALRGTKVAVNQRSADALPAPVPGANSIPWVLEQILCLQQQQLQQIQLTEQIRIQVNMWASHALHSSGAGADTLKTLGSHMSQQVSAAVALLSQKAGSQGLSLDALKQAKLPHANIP
Kind of series: Thermal Shift Assay (fluorescence-based binding assay). The conditions noted are these: SALL4 1-300 with 100 mM compound. From the text:
In the upper panel of FIG. 7, a fluorescence-based binding assay named Thermal Shift Assay was used to assess the binding of compound 6 to SALL4 1-300 protein based on changes in unfolding transition. […] In the lower panel of FIG. 7, compound 6 binding to SALL4 was accessed by 1H NMR Experiments and Saturation Transfer Difference (STD) using ^15N SALL4 1-300 and Compound 6. The samples were screened using Bruker BioSpin AVANCE II 600 MHz spectrometer equipped with a CPPTCI{ 19F} cryoprobe and SampleJet auto-sampler. Compound 6 weak binding event to SALL4 1-300 was identified based on the increase in transverse relaxation rate (R2) observed in the presence of SALL4 1-300 protein.

Series [5] relates to SALL4 high tumor. Kind of series: In vivo xenotransplant testing in mice. The conditions noted are these: treated mice, P<0.05.
Series [6] is described as follows: Pharmacokinetic study, whole blood concentration by LC-MS/MS. Type of series: in vivo, Swiss albino mice. On the procedure: Compound 6 was dissolved in water containing 3% DMSO and 10% hydroxyl propyl-b-cyclodextrin (EncapsinTM) for the i.v. dose, and in water containing 5% DMSO and 9.5% Encapsin for the oral dose. Blood samples were collected at 0.083, 0.25, 0.5, 1, 2, 4, 6, 8 and 24 hrs. The whole blood concentration was measured by LC-MS/MS. From the oral route, 90% of compound 6 was cleared at 2 hrs. For the intravenous route, 90% of compound 6 was cleared at 4 hrs.

Series [7] can be described thus: Metabolic stability using liver microsomes. Type of series: in vitro ADME. The conditions noted are these: 1 µM, 3.33 mg/ml liver microsomes, 2.5 mM NADPH. From the text:
(§2) Pan-HDAC binding assay measures HDAC inhibitory activity of a compound. Tubulin Polymerisation inhibition assays measure inhibition activity of a compound towards tubulin polymerization. SALL4 protein expression down regulation assay changed to western blot analysis, SALL4 RNA expression down regulation assay changed to real-time PCR assay. Permeability assay measures the (PAMPA) measures permeability of a compound across an artificial membrane. The microsomal stability assay measures rate of disappearance of a test compound over time in liver microsomes. In vivo PK assay measures biodistribution of the test compound in mice.
1 µM of compound 6 was incubated with 3.33 mg/ml liver microsomes and 2.5 mM NADPH for 0, 5, 10, 30 and 60 minutes. The mixture were subjected to LC-MS/MS to measure remaining compound after the incubation.

Series [8] in a line: PAMPA permeability assay. The format is in vitro ADME. The conditions noted are these: 50 µM, pION buffer, 4 hours.
From the text: as §2
50 µM of Compound 6 prepared in pION buffer was added to bottom of UV plate. GIT-0 solution was added and the solution was incubated for 4 hours. The plate spectrum was read using spectrophotometer in scanning mode from 200 nm to 500 nm using PAMPA pION software.
Background: The PAMPA barrier holds no transporters, so it reflects passive diffusion.

The term IC50 denotes the concentration needed to halve the response being measured. With `COc1ccc(N)c(NC(=O)/C=C/c2cccnc2Nc2cc(OC)c(OC)c(OC)c2)c1`, the IC50 in series [1] fell in the range of 0.15 to 1 µM.
Consider `COc1cc(Nc2ncccc2/C=C/C(=O)Nc2cc(C)ccc2N)cc(OC)c1OC`, for which the half-maximal inhibitory concentration (IC50) in series [1] was 0.15 to 1 µM.
The same measure, in the same setting: under `COc1cc(Nc2ncccc2/C=C/C(=O)Nc2cc(Cl)c(Cl)cc2N)cc(OC)c1OC` stands 0.15 to 1 µM.
On to `COc1ccc(Nc2ncccc2/C=C/C(=O)Nc2cc(C)ccc2N)cc1`, for which, in series [1], the IC50 was roughly 2 µM and the “fold less potent than the most active compounds” value is “about 10 fold”.
In the case of `COc1ccc(N)c(NC(=O)/C=C/c2cccnc2Nc2ccc(C(F)(F)F)cc2)c1`, in series [1], the IC50 is roughly 25 µM and the “fold less potent than the most active compounds” value is listed as “about 100 fold”.
Take `Nc1ccc(F)cc1NC(=O)c1cccnc1Nc1ccc(F)cc1`: the “IC50 in high SALL4 SNU398 cells” value in series [1] is “inactive”.
`Nc1ccc(Cl)cc1NC(=O)c1cccnc1Nc1ccc(F)cc1`: the “IC50 in high SALL4 SNU398 cells” value in series [1] was “inactive”.
As to `COc1cc(Nc2ncccc2/C=C/C(=O)Nc2ccc(Cl)cc2N)cc(OC)c1OC` [Cmpd 6], in series [1] (Example 1, see FIG. 2), the “activity in high SALL4 cells” value was “sub-micromolar”. For the same molecule, in series [1] (SALL4 high vs SALL4 low cells), the “selectivity between SALL4 low and SALL4 high cells (FIG. 2)” value is listed as “excellent”. For the same molecule, the “EC50 / potency (FIG. 2)” value in series [1] (cell-based screening, SALL4 high cells) is “excellent”. In series [2], the “low SALL4 cell inhibition, concentration” value is “high micromolar”. For the same molecule, in series [3], the “SALL4 RNA level (Q-PCR)” value is on record as “reduced”. For the same molecule, the melting shift in series [4] was found to be 4.7 °C. For the same molecule, in series [5], the xenograft size entry was “significant (P<0.05) smaller” and the xenograft weight entry was “significant (P<0.05) smaller”. In addition, the “compound cleared from whole blood” value in series [6] (intravenous 5 mg/kg, at 4 hrs) came to 90%. For the same molecule, the “compound cleared from whole blood” value in series [6] (oral 15 mg/kg, at 2 hrs) is reported as 90%. Moreover, the “status in liver microsome assay (printed: permeability status)” value in series [7] is listed as “medium”. The “metabolic stability in liver microsomes, %QH” value in series [7] (0-60 minutes) stood at 45.88 %QH. Moreover, the “permeability in PAMPA assay” value in series [8] is recorded as “high”.
As for `COc1cc(Nc2ncccc2/C=C/C(=O)Nc2ccc(Cl)cc2N)cc(OC)c1OC` [drawing 157], the IC50 in series [1] was in the range of 0.15 to 1 µM.

Values taken from patent US20230202980A1, “N-(2-Aminophenyl)-Prop-2-Enamide Derivatives, and Uses Thereof in the Treatment of Cancer” (National University of Singapore, priority 2019, published 2023).
